Data as given in the supplement of paper PMC10307832.

Experiments:
Experiment in all cases: relative viability (nuclei count vs DMSO), 5 days (fraction); higher = more cells survive
[1] = compound: NS(=O)(=O)OC[C@@H]1C[C@@H](n2ccc3c(N[C@H]4CCc5ccccc54)ncnc32)C[C@@H]1O [MLN4924] + COc1cc2c(Oc3ccc(NC(=O)C4(C(=O)Nc5ccc(F)cc5)CC4)cc3F)ccnc2cc1OCCCN1CCOCC1 [Foretinib] (partner 0.25 µM)
Summary of the method: (§1)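 A single step with final 0.05% Triton X-100, 1% formaldehyde and 1 ug/ml Hoechst fixed the cells and stained nuclei 5 days after treatment. Lung cancer cell lines in 1536-well plates had been treated by pin tool the day after seeding with one drug alone or a fixed anchor-drug dose plus five library-drug doses (not always all listed) in √10 steps, and nuclei were counted on 4× images. Relative viability is the ratio of nuclei in treated wells to nuclei in vehicle wells, taken as the median of duplicate plates.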

[2] = compound: C1CC(C1)(C(=O)O)C(=O)O.[NH2-].[NH2-].[Pt+2] [Carboplatin] + C[C@]1(O)C[C@@H](c2nc(-c3ccc4ccc(-c5ccccc5)nc4c3)c3c(N)nccn32)C1 [Linsitinib] (partner 1 µM)
Summary of the method: as §1

[3] = compound: CC[C@H](C)N1C=C(C2=C(C=C(C=C21)C3=CN=C(C=C3)N4CCNCC4)C(=O)NCC5=C(C=C(NC5=O)C)C)C [GSK126] + CC1(C)CCC(c2ccc(Cl)cc2)=C(CN2CCN(c3ccc(C(=O)NS(=O)(=O)c4ccc(N[C@H](CCN5CCOCC5)CSc5ccccc5)c(S(=O)(=O)C(F)(F)F)c4)cc3)CC2)C1 [Navitoclax] (partner 0.5 µM)
Summary of the method: as §1

[4] = compound: NS(=O)(=O)OC[C@@H]1C[C@@H](n2ccc3c(N[C@H]4CCc5ccccc54)ncnc32)C[C@@H]1O [MLN4924] + Cc1nc(NC(=O)N2CCC[C@H]2C(N)=O)sc1-c1ccnc(C(C)(C)C(F)(F)F)c1 [Alpelisib] (partner 2 µM)
Summary of the method: as §1

| Cell Line | relative viability ([1]; first compound 0.04 µM) | relative viability ([1]; first compound 0.1265 µM) | relative viability ([1]; first compound 0.4 µM) | relative viability ([1]; first compound 1.265 µM) | relative viability ([1]; first compound 4 µM) | relative viability ([2]; first compound 0.08 µM) | relative viability ([2]; first compound 0.253 µM) | relative viability ([2]; first compound 0.8 µM) | relative viability ([2]; first compound 2.53 µM) | relative viability ([2]; first compound 8 µM) | relative viability ([3]; first compound 0.08 µM) | relative viability ([3]; first compound 0.253 µM) | relative viability ([3]; first compound 0.8 µM) | relative viability ([3]; first compound 2.53 µM) | relative viability ([3]; first compound 8 µM) | relative viability ([4]; first compound 0.04 µM) | relative viability ([4]; first compound 0.1265 µM) | relative viability ([4]; first compound 0.4 µM) | relative viability ([4]; first compound 1.265 µM) | relative viability ([4]; first compound 4 µM) |
| --- | --- | --- | --- | --- | --- | --- | --- | --- | --- | --- | --- | --- | --- | --- | --- | --- | --- | --- | --- | --- |
| NCI-H2126 | 1.14 | 0.87 | 1.08 | 0.335 | 0.267 | 0.724 | 0.741 | 0.713 | 0.687 | 0.667 | 0.915 | 0.919 | 0.812 | 0.852 | 0.934 | 0.781 | 0.718 | 0.647 | 0.338 | 0.273 |
| NCI-H838 | 0.684 | 0.503 | 0.22 | 0.174 | 0.16 | 1.03 | 1.09 | 0.961 | 0.958 | 1 | 1.15 | 1.18 | 1.09 | 1.1 | 0.978 | 0.795 | 0.658 | 0.261 | 0.168 | 0.148 |
| EPLC-272H | 0.582 | 0.216 | 0.0552 | 0.0953 | 0.109 | 1.17 | 1.32 | 1.01 | 1.11 | 1.01 | 1.24 | 1.15 | 1.29 | 1.17 | 1.2 | 1.05 | 0.957 | 0.131 | 0.136 | 0.195 |
| NCI-H1437 | 0.835 | 1.15 | 0.739 | 0.465 | 0.22 | 1.06 | 1.02 | 0.95 | 0.859 | 0.876 | 1.14 | 1.11 | 1.04 | 1.03 | 1.03 | 0.905 | 0.977 | 0.755 | 0.422 | 0.101 |
| NCI-H2405 | 1.08 | 0.928 | 0.76 | 0.319 | 0.293 | 0.957 | 0.871 | 0.882 | 0.833 | 0.842 | 0.76 | 0.708 | 0.805 | 0.895 | 0.552 | 1.02 | 0.933 | 0.517 | 0.196 | 0.215 |
| NCI-H1666 | 1.02 | 0.696 | 0.541 | 0.304 | 0.346 | 0.823 | 0.879 | 0.747 | 0.794 | 0.458 | 1.08 | 0.982 | 1.02 | 0.833 | 1.12 | 1.18 | 0.832 | 0.432 | 0.148 | 0.205 |
| NCI-H1993 | 0.624 | 0.59 | 0.517 | 0.553 | 0.602 | 0.773 | 0.798 | 0.779 | 0.817 | 0.701 | 0.981 | 0.931 | 0.754 | 1.06 | 0.892 | 0.808 | 0.555 | 0.596 | 0.569 | 0.541 |
| Calu-6 | 0.699 | 0.322 | 0.209 | 0.0838 | 0.0789 | 0.988 | 0.948 | 0.943 | 0.967 | 0.601 | 0.936 | 0.858 | 0.853 | 0.842 | 0.795 | 1.09 | 1.07 | 0.388 | 0.14 | 0.148 |
| HCC-78 | 0.583 | 0.653 | 0.84 | 0.247 | 0.194 | 0.509 | 0.461 | 0.416 | 0.46 | 0.511 | 1.01 | 0.711 | 0.832 | 0.741 | 0.804 | 0.429 | 0.253 | 0.536 | 0.149 | 0.139 |
| LU99A | 0.531 | 0.365 | 0.314 | 0.188 | 0.236 | 0.621 | 0.583 | 0.508 | 0.464 | 0.417 | 0.926 | 0.812 | 0.705 | 0.777 | 0.766 | 0.418 | 0.244 | 0.299 | 0.173 | 0.153 |
| NCI-H520 | 0.732 | 0.502 | 0.409 | 0.305 | 0.205 | 0.997 | 1.09 | 1.02 | 0.943 | 0.784 | 1.24 | 1.02 | 1.03 | 1.14 | 1.34 | 0.535 | 0.432 | 0.308 | 0.22 | 0.181 |
| NCI-H1975 | 0.962 | 1.08 | 1.27 | 0.488 | 0.207 | 0.894 | 0.986 | 0.999 | 1.02 | 0.903 | 1.04 | 1.18 | 0.94 | 0.998 | 0.892 | 0.694 | 1.11 | 1.26 | 0.339 | 0.21 |
| NCI-H1355 | 0.943 | 0.91 | 0.889 | 0.472 | 0.201 | 0.971 | 0.805 | 0.838 | 0.869 | 0.727 | 0.985 | 1.07 | 0.911 | 1.01 | 1.02 | 0.831 | 0.865 | 0.776 | 0.35 | 0.152 |
| NCI-H1755 | 0.979 | 0.804 | 0.421 | 0.243 | 0.184 | 1.12 | 0.947 | 1.03 | 1.02 | 0.952 | 1.07 | 0.996 | 0.999 | 0.997 | 0.969 | 0.835 | 0.638 | 0.475 | 0.172 | 0.145 |
| NCI-H2009 | 1.02 | 0.494 | 0.344 | 0.193 | 0.104 | 1.21 | 1.14 | 1.09 | 1.09 | 0.807 | 1.23 | 1.14 | 1.19 | 1.1 | 1.16 | 0.987 | 0.791 | 0.299 | 0.151 | 0.114 |
